Experimental data published in patent publication US7449312B2, “Kit for conducting a polymerase chain reaction” (The Secretary of State for Defense in Her Britannic …, priority 2001, dated 2008).
Where two headings read alike, the source gives them in different places.

Columns and labels:
[1] = tested on: thermostable DNA polymerases (Taq, Tbr, Tth, TspNH, Pfu, 9°N exo-, VENT, Accurase); assay: PCR with different thermostable DNA polymerases, with PPi and Sac PPase; type: biochemical; settings: FIGS. 7a, 7b, 8b
From the text: A variety of thermostable DNA polymerases were employed in the method of the invention and some comparative assays. These included several non-proofreading Thermus sp. DNA polymerases, proof-reading hyperthermophilic archael DNA polymerases and mixes of non-proofreading and proofreading DNA polymerases.
They were all tested using the 500 bp lambda PCR as described in Example 1 (FIGS. 7a and 7b), and several using the Angiotensin assay as described in Example 4 (FIGS. 8a and 8b).

Taq DNA polymerase = Taq DNA polymerase (Thermus aquaticus, UniProt P19821); settings: for suppression of PCR: results not shown
Protocol: Using Taq DNA polymerase, a standard 500 bp lambda template PCR using the following reagents, was conducted in the presence of differing quantities of the inorganic pyrorphosphate, tetrasodium pyrophosphate decahydrate (PPi).
1× Reaction Buffer: 10 mM Tris. pH 8.0, 50 mM KCl.
(§1) PCR conditions for the assay were as follows:
The PPi was added such that the final concentration in the reaction mixture was 0, 1, 2, 3, 4 and 5 mM. In this Figure, the lanes correspond to the following concentrations of PPi
In order to eliminate this possibility, the procedure of Example 1 with 3 mM PPi was repeated in the presence of various concentrations of magnesium ions.
The example was repeated using concentrations of PPi of less than 1 mM.

[2] = 500 bp lambda PCR in the presence of PPi and PPase; type: biochemical; settings: 0.2 u Sac PPase; 95° C. for 5 mins
From the text: The 500 bp lambda PCR of Example 1 was repeated, but this time, 0.2 u of Sulfolobus acidocaldarius PPase (Sac PPase) was included in reactions containing pyrophosphate (PPi).
The results are shown in FIG. 3 where the lanes represent the following reactions: […]

[3] = tested on: 321 bp fragment of the human angiotensin gene; assay: Angiotensin PCR assay requiring a HotStart reaction; type: biochemical; settings: up to two hours at ambient temperature; 0.2 u Sac PPase, 3 mM PPi
From the text: The method of the invention was then applied to an assay system that requires a “HotStart” reaction in order to generate a PCR product of the correct size.
The assay is based around the amplification of a 321 bp fragment of the human angiotensin gene. It has been recognised that the assay will only generate the correct amplification product in the presence of betaine (EP-A-0962526—see in particular Example 8).
Without betaine a HotStart DNA polymerase generates few non-specific amplification products or no products at all whereas a non-HotStart DNA polymerase PCR generates a large number of non-specific amplification products.
The PCR conditions used in the Angiotensin assay can be summarised as follows.
as §1
The reaction was conducted using a PE9700 Instrument in the presence of 3 mM PPi and 0.2 u PPase as described in Example 3.
The effect of leaving a PCR mixture containing 0.2 u Sac PPase and 3 mM PPi at room temperature 20° C. for various lengths of time prior to conducting the Angiotensin assay, was investigated. Although Sac PPase is a thermostable enzyme, it was possible that there would be a small level of enzyme activity at ambient temperatures. This might lead to insufficient PPi in the reaction to inhibit/stop the DNA polymerase leading to primer extension and lack of “HotStart” functionality. […]

Taq DNA polymerase, sequence (P19821 whole entry): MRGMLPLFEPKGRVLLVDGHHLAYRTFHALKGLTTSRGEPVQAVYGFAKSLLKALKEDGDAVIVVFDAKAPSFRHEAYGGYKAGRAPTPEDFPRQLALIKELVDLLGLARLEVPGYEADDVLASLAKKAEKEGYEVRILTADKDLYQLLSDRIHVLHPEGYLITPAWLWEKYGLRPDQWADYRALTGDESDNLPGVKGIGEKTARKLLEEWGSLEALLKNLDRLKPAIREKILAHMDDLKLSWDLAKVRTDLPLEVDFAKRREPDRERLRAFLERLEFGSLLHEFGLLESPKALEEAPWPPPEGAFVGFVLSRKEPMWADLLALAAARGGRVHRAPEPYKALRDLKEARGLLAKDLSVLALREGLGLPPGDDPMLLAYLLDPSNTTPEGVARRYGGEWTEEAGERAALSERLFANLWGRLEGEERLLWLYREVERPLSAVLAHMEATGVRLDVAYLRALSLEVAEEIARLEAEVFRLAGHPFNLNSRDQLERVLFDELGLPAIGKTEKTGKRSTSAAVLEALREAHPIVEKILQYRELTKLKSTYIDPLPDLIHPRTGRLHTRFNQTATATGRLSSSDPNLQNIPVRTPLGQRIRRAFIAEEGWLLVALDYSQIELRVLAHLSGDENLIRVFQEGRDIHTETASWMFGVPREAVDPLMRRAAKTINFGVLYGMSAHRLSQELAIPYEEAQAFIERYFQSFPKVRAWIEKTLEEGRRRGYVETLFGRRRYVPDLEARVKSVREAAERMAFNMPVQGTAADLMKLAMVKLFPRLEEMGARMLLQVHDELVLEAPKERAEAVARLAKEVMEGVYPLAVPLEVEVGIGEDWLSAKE

Q: Which “inhibition of DNA polymerases by PPi” value ([1]; 3 mM PPi, no PPase) does the source give for `O.O.O.O.O.O.O.O.O.O.O=P([O-])([O-])OP(=O)([O-])[O-].[Na+].[Na+].[Na+].[Na+]` [PPi, tetrasodium pyrophosphate decahydrate] here?
A: Its value is “inhibited”.

Q: And the “suppression of PCR” value (Taq DNA polymerase; 0.4 mM PPi)?
A: The value was “did not completely suppress the PCR”.

Q: What about the “suppression of PCR” value (Taq DNA polymerase; 0.6 mM PPi) of the same molecule?
A: Its value is “no PCR occurred”.

Q: What about the “PCR with increasing magnesium ion concentration” value (Taq DNA polymerase; 3 mM PPi, Mg++ up to 10 mM final concentration, FIG. 2) of the same molecule?
A: The value was “does not allow PCR to occur”.

Q: What about the “PCR product formation in presence of PPi” value (Taq DNA polymerase; PPi 1, 2, 3, 4 and 5 mM final, 1.5 mM MgCl2, FIG. 1) of the same molecule?
A: Its value is “no PCR product was produced”.

B1: Sac PPase: thermostable pyrophosphatase of Sulfolobus acidocaldarius, obtainable from GeneSys Limited (protein, UniProt P50308 1-173, looked up)
Inorganic pyrophosphatase: MKLSPGKNAPDVVNVLVEIPQGSNIKYEYDDEEGVIKVDRVLYTSMNYPFNYGFIPGTLEEDGDPLDVLVITNYQLYPGSVIEVRPIGILYMKDEEGEDAKIVAVPKDKTDPSFSNIKDINDLPQATKNKIVHFFEHYKELEPGKYVKISGWGSATEAKNRIQLAIKRVSGGQ
Q: With B1 as the molecule, how does the “reversal of PPi inhibition by PPase” value ([1]; 3 mM PPi and 0.2u Sac PPase) read?
A: Its value is “inhibition could be overcome”.

Q: What about the “destruction of pyrophosphate so that the PCR reaction could proceed” value [2] of the same molecule?
A: The value was “sufficient to destroy the pyrophosphate”.

Q: What about the “ambient temperature digestion of PPi by PPase” value [3] of the same molecule?
A: Its value is “insufficient ambient temperature digestion of the PPi”.
